Assay results taken from US20230285601A1, “NON DEGRADABLE RADIO-OPAQUE EMBOLISATION MICROSPHERE” (GUERBET, priority 2019, published 2023).

Columns and labels:
[1] = Release in vitro of anticancer drugs from the radiopaque microspheres; assay type: physicochemical; settings: for Time for 50% release / Time for complete release / % elution at 1 h: microspheres with methacrylic acid, 37° C., 150 rpm; for % elution at 1 h: pH 7.4 buffer
Procedure: To study the release of doxorubicin from the microspheres, the sediments are washed in 10 mL of water, before adding 50 mL of buffer 50 mM Tris-HCl, 0.9% NaCl, pH 7.4. Incubation takes place at 37° C. with stirring. The release of doxorubicin is measured at different times at 490 nm.
To study the release of irinotecan, the microspheres are washed in 10 mL of water, and then 50 mL of PBS (10 mM Na2HPO4, 1.8 mM KH2PO4, 138 mM NaCl, 2.7 mM KCl, pH 7.4) equilibrated at 37° C. is added. The release of the drug over time is measured by reading the absorbance at 370 nm.
To study the release of sunitinib, the microspheres are washed in 10 mL of water, and then 50 mL of PBS equilibrated at 37° C. is added. The release of the drug over time is measured by reading the absorbance at 405 nm.
To study the release of vandetanib, the microspheres are washed in 10 mL of water, and then 50 mL of PBS equilibrated at 37° C. is added. The release of the drug over time is measured by reading the absorbance at 254 nm.

[2] = Loading of anticancer drugs on the radiopaque microspheres; assay type: physicochemical
Procedure: The tests of loading and controlled release of anticancer drugs were performed on radiopaque microspheres of 100-300 µm sterilized by autoclaving and comprising or not comprising an ionized or ionizable monomer such as methacrylic acid.
The microspheres with methacrylic acid are microspheres from batch 13, the composition of which is given in example 3. The microspheres without methacrylic acid have the same composition as the microspheres from batches L1 and L1Bis described in example 5.
Loading with doxorubicin: the target for loading is 37.5 mg of doxorubicin per ml of microspheres. For this, 3.8 mL of doxorubicin-HCl (Adriblastine®, Pfizer) in solution in water at 2.5 mg/mL is added to 250 µL of wet sediment of microspheres. After mixing by inversion, the suspension is made up to 6 mM with sodium bicarbonate (Lavoisier). Loading is carried out at room temperature and with stirring for one hour. Measurement of the residual amount of doxorubicin (absorbance at 490 nm) present in the supernatants serves for determining the amount of drug loaded on the microspheres.
Loading with irinotecan: the loading target is 50 mg of irinotecan per mL of microspheres. […] After 30 minutes, measurement of the residual amount of irinotecan (absorbance at 370 nm) in the supernatant serves for determining the amount loaded on the microspheres.
Loading with sunitinib: The sediments of the radiopaque microspheres are incubated for 1 h at room temperature in 10 mL of sunitinib in the form of malate (LC Laboratories) at 1 mg/mL in water. […] After stirring for 1 h on a wheel, measurement of the residual amount of sunitinib (absorbance at 405 nm) in the supernatant serves for determining the amount loaded on the microspheres.
Loading with vandetanib: The sediments of the radiopaque microspheres are incubated for 2 h at room temperature in 10 mL of a water/DMSO (1/1) mixture containing 5 mg of vandetanib (LC Laboratories). The residual amount of vandetanib in the supernatants is measured at 254 nm in order to calculate the amount loaded on the microspheres. […]

[3] = 100-300 µm radiopaque microspheres with methacrylic acid (batch 13)

SMILES	Time for 50% release [1] [h]	Time for complete release [1]	% elution at 1 h [1] [%]	Loading (mg of drug / mL of wet sediment) [2, 3]	Release (elution in PBS), in words ([1]; compared with irinotecan)	Loading (mg of drug / mL of wet sediment) ([2]; 100-300 µm radiopaque microspheres without methacrylic acid)
CCc1c2c(nc3ccc(OC(=O)N4CCC(N5CCCCC5)CC4)cc13)-c1cc3c(c(=O)n1C2)COC(=O)[C@]3(O)CC [Irinotecan, irinotecan]	1	1 days	50	46 mg of drug / mL of wet sediment	–	–
COc1cccc2c1C(=O)c1c(O)c3c(c(O)c1C2=O)C[C@@](O)(C(=O)CO)C[C@@H]3O[C@H]1C[C@H](N)[C@H](O)[C@H](C)O1 [Doxorubicin, doxorubicin]	24	1 week	26	36.8 mg of drug / mL of wet sediment	slower, being spread over several days	29.8 mg of drug / mL of wet sediment
